Measurements taken from ChEMBL document CHEMBL1201862, “PubChem BioAssay data set” (2004).
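A five-concentration, 48-hour dose response in 96-well plates underlies each endpoint, interpolated linearly between surrounding concentrations. GI50 is the concentration that inhibits growth by half.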 The source made the active and inactive calls. No stated cut-off is given here; in the data, active = GI50 up to about 1.1 µM and inactive = higher.

Key:
Assay in all cases: inhibition of tumour cell growth, NCI panel, 48 h
SNB-75 = system: SNB-75
SW-620 = system: SW-620
UACC-257 = system: UACC-257
A549 = system: A549
SF-268 = system: SF-268
NCI-H522 = system: NCI-H522
OVCAR-5 = system: OVCAR-5
DU-145 = system: DU-145
TK-10 = system: TK-10
SK-OV-3 = system: SK-OV-3
RXF 393 = system: RXF 393
HT-29 = system: HT-29
SF-295 = system: SF-295
EKVX = system: EKVX
HL-60 = system: HL-60
HOP-62 = system: HOP-62
UACC-62 = system: UACC-62
OVCAR-3 = system: OVCAR-3
HCC 2998 = system: HCC 2998
SN12C = system: SN12C

Compound	GI50 (SNB-75)	GI50 (SW-620)	GI50 (UACC-257)	GI50 (A549)	GI50 (SF-268)	GI50 (NCI-H522)	GI50 (OVCAR-5)	GI50 (DU-145)	GI50 (TK-10)	GI50 (SK-OV-3)	GI50 (RXF 393)	GI50 (HT-29)	GI50 (SF-295)	GI50 (EKVX)	GI50 (HL-60)	GI50 (HOP-62)	GI50 (UACC-62)	GI50 (OVCAR-3)	GI50 (HCC 2998)	GI50 (SN12C)
CN1C(=O)C(C#N)C2C[C@@]1(C)Oc1ccccc12 (stereo not given in full)	> 100 µM (inactive)	> 100 µM (inactive)	> 100 µM (inactive)	> 100 µM (inactive)	> 100 µM (inactive)	> 100 µM (inactive)	> 100 µM (inactive)	> 100 µM (inactive)	> 100 µM (inactive)	> 100 µM (inactive)	> 100 µM (inactive)	> 100 µM (inactive)	> 100 µM (inactive)	> 100 µM (inactive)	> 100 µM (inactive)	> 100 µM (inactive)	> 100 µM (inactive)	> 100 µM (inactive)	> 100 µM (inactive)	
CC1=C(SCCO)C(=O)c2ccccc2C1=O	16.5 µM (inactive)	12.2 µM (inactive)	13 µM (inactive)	15.9 µM (inactive)	15.5 µM (inactive)	3.72 µM (inactive)	17.9 µM (inactive)	16 µM (inactive)	16.8 µM (inactive)	16 µM (inactive)	13.4 µM (inactive)	19.3 µM (inactive)	17.2 µM (inactive)	8.41 µM (inactive)	0.55 µM (active)	15.9 µM (inactive)	14.9 µM (inactive)	2.82 µM (inactive)	16.6 µM (inactive)	15.6 µM (inactive)
Nc1n[nH]c2c1Cc1c(n(Cc3ccc(Cl)cc3)c3ccccc13)C(=O)N2	16.2 µM (inactive)	8.47 µM (inactive)	18 µM (inactive)	17.8 µM (inactive)	17.1 µM (inactive)		14.2 µM (inactive)	12 µM (inactive)	15 µM (inactive)	18.1 µM (inactive)	5.69 µM (inactive)	16.1 µM (inactive)	17.3 µM (inactive)	18.7 µM (inactive)	3.03 µM (inactive)	15 µM (inactive)	20.3 µM (inactive)	14.1 µM (inactive)	10.4 µM (inactive)	14.5 µM (inactive)
COc1cc(OC)cc(Oc2nc3cc(F)c(F)cc3nc2-c2ccccc2)c1	> 100 µM (inactive)	> 100 µM (inactive)	> 100 µM (inactive)	> 100 µM (inactive)	> 100 µM (inactive)	> 100 µM (inactive)	> 100 µM (inactive)	> 100 µM (inactive)	> 100 µM (inactive)	> 100 µM (inactive)	> 100 µM (inactive)	> 100 µM (inactive)	> 100 µM (inactive)	> 100 µM (inactive)	> 100 µM (inactive)	> 100 µM (inactive)	> 100 µM (inactive)	> 100 µM (inactive)		> 100 µM (inactive)
Clc1cc(N/N=C(\c2ccccc2)c2ccccn2)ncn1	20.7 µM (inactive)	0.0238 µM (active)	0.0274 µM (active)	0.55 µM (active)	0.489 µM (active)	< 0.01 µM (active)	0.361 µM (active)	0.5 µM (active)	0.0363 µM (active)	0.301 µM (active)	5.08 µM (inactive)	< 0.01 µM (active)	0.502 µM (active)	0.0215 µM (active)		0.256 µM (active)	0.308 µM (active)	0.0223 µM (active)	5.94 µM (inactive)	
COc1ccc2nc3c(C)cc4ccccc4n3c2c1	28.2 µM (inactive)	73.6 µM (inactive)	> 100 µM (inactive)	41.1 µM (inactive)	86.9 µM (inactive)		> 100 µM (inactive)	> 100 µM (inactive)	80.2 µM (inactive)	> 100 µM (inactive)	25.8 µM (inactive)	55 µM (inactive)	78.7 µM (inactive)	19.2 µM (inactive)	> 100 µM (inactive)	75.3 µM (inactive)	> 100 µM (inactive)	71 µM (inactive)	> 100 µM (inactive)	> 100 µM (inactive)
N#Cc1c(Cl)cc(Cl)n2c1nc1ccccc12	14 µM (inactive)	3.15 µM (inactive)	10.3 µM (inactive)	17.3 µM (inactive)	14.1 µM (inactive)	2.29 µM (inactive)	20 µM (inactive)	14.3 µM (inactive)	6.68 µM (inactive)	16.9 µM (inactive)	13.2 µM (inactive)	7.55 µM (inactive)	17.3 µM (inactive)	23.1 µM (inactive)	1.31 µM (inactive)	22.9 µM (inactive)	12.6 µM (inactive)	6 µM (inactive)	2.51 µM (inactive)	15.3 µM (inactive)
CCOc1ncn(-c2ccc(NC(=S)Nc3cccc(O)c3)cc2)n1	40.4 µM (inactive)	> 100 µM (inactive)	> 100 µM (inactive)	> 100 µM (inactive)	> 100 µM (inactive)	> 100 µM (inactive)	> 100 µM (inactive)	> 100 µM (inactive)	> 100 µM (inactive)	> 100 µM (inactive)		> 100 µM (inactive)	> 100 µM (inactive)	> 100 µM (inactive)	> 100 µM (inactive)	> 100 µM (inactive)	> 100 µM (inactive)	> 100 µM (inactive)	> 100 µM (inactive)	> 100 µM (inactive)
Brc1ccc2[nH]cc([C@@H]3CN[C@@H](c4c[nH]c5ccc(Br)cc45)CN3)c2c1	2.78 µM (inactive)	4.18 µM (inactive)	8.95 µM (inactive)	6.15 µM (inactive)	10.4 µM (inactive)	2.21 µM (inactive)	7.89 µM (inactive)	3.47 µM (inactive)	6.92 µM (inactive)	12.7 µM (inactive)	5.48 µM (inactive)	5.71 µM (inactive)	3.72 µM (inactive)	5.57 µM (inactive)	1.82 µM (inactive)	8.18 µM (inactive)	7.52 µM (inactive)	4.8 µM (inactive)	6.52 µM (inactive)	6.04 µM (inactive)
N#C/C(=C\c1ccc(Cl)cc1)c1nc2ccccc2c(=O)[nH]1	17.1 µM (inactive)	> 100 µM (inactive)	> 100 µM (inactive)	> 100 µM (inactive)	51.6 µM (inactive)	37.4 µM (inactive)	> 100 µM (inactive)	> 100 µM (inactive)	76 µM (inactive)	> 100 µM (inactive)	81.5 µM (inactive)	> 100 µM (inactive)	47.4 µM (inactive)	> 100 µM (inactive)	> 100 µM (inactive)	33 µM (inactive)	43.7 µM (inactive)		> 100 µM (inactive)	> 100 µM (inactive)
O=C1OC(CN2CCOCC2)CN1/N=C/c1ccc([N+](=O)[O-])o1 (stereo not given) [FURALTADONE]	> 100 µM (inactive)	50.7 µM (inactive)	35.7 µM (inactive)	50.9 µM (inactive)	60.3 µM (inactive)	26 µM (inactive)	61.5 µM (inactive)	73.3 µM (inactive)	> 100 µM (inactive)	74.6 µM (inactive)		32.4 µM (inactive)	34.9 µM (inactive)	63.7 µM (inactive)	48.8 µM (inactive)	61.9 µM (inactive)	34 µM (inactive)	21.9 µM (inactive)		28.7 µM (inactive)
